Converted amounts (≈) assume the structure as drawn.
Legend:
[1] = test system: Candida albicans (ATCC 10231, fungus); assay: Minimum inhibitory concentration, microdilution assay; format: cell-based
Description: Staphylococcus aureus (ATCC 6538, Gram-positive), Escherichia coli (ATCC 8739, Gram-negative), Pseudomonas aeruginosa (ATCC 9027, Gram-negative), and Candida albicans (ATCC 10231, fungus) were used as representative microorganisms to challenge the antimicrobial functions of the oligomers. All bacteria and fungus were frozen at -80° C., and were grown overnight at 37° C. in Mueller Hinton Broth (MHB, BD Singapore) prior to experiments. Fungus was grown overnight at 22° C. in Yeast Mold Broth (YMB, BD Singapore). […] […] […] Medium solution containing microbial cells alone were used as control (100% microbial growth). The assay was performed in four replicates and the experiments were repeated at least two times.

[2] = test system: C. albicans; assay: Checkerboard assay of oligomers with triazoles (FIC); format: cell-based; settings: Candida albicans
Description: […]. […] A row and a column in which a serial dilution of each agent was present alone were also prepared for MIC test. Then each solution in the well plate was inoculated with 100 μL of logarithmically grown 10^6 cells/ml C. albicans cells in the 96-well plate. The plate also contained a column with C. albicans only as control (100% cell growth). The cells were incubated at room temperature for 24 h with constant shaking, after which cell growth (i.e. the O.D. at 600 nm) was monitored with a microplate reader (TECAN) Synergy between fluconazole and oligomers was determined by calculating the fractional inhibitory concentration index ([…] was calculated as follows: FIC=(MIColigomer A in combination/MIColigomer A alone)+(MICazole B in combination/MICazole B alone). […] The interaction of selected oligomers with other triazoles such as itraconazole and voriconazole was also investigated using the checkerboard dilution method. For comparison, the interaction of the selected oligomer with a non-triazole antifungal agent […] was also investigated.

[3] = test system: Candida albicans; assay: Killing efficacy of selected oligomers at 62 μg/ml (FIG. 1); format: cell-based
[4] = test system: C. albicans; format: cell-based, Candida albicans
[5] = test system: Escherichia coli (ATCC 8739, Gram-negative); assay: Minimum inhibitory concentration, microdilution assay; format: cell-based; settings: 24 h, lowest concentration with no visible growth
Description: (§1) Staphylococcus aureus (ATCC 6538, Gram-positive), Escherichia coli (ATCC 8739, Gram-negative), Pseudomonas aeruginosa (ATCC 9027, Gram-negative), and Candida albicans (ATCC 10231, fungus) were used as representative microorganisms to challenge the antimicrobial functions of the oligomers. All bacteria and fungus were frozen at -80° C., and were grown overnight at 37° C. in Mueller Hinton Broth (MHB, BD Singapore) prior to experiments. Fungus was grown overnight at 22° C. in Yeast Mold Broth (YMB, BD Singapore). […] The plates were incubated at 37° C. for 24 h with constant shaking speed at 300 rpm. […] Medium solution containing microbial cells alone were used as control (100% microbial growth). The assay was performed in four replicates and the experiments were repeated at least two times.

[6] = test system: Pseudomonas aeruginosa (ATCC 9027, Gram-negative); assay: as above; format: cell-based; settings: 24 h, lowest concentration with no visible growth
Description: as §1

[7] = test system: Staphylococcus aureus (ATCC 6538, Gram-positive); assay: as above; format: cell-based; settings: 24 h, lowest concentration with no visible growth
Description: as §1

[8] = test system: mouse red blood cells (RBCs); assay: Hemolysis study; format: cell-based; settings: oligomer concentration giving 10% hemolysis, 1 h, 37° C.
Description: After 1 h incubation at 37° C., the mixture was centrifuged at 2000 rpm for 5 min. Aliquots (100 μl) of the supernatant were transferred to a 96-well plate. Hemolytic activity was determined as a function of hemoglobin release by measuring absorbance of the supernatant at 576 nm using a microplate reader. A control solution that contained only PBS was used as a reference for 0% hemolysis. Absorbance of red blood cells lysed with 0.5% Triton-X was taken as 100% hemolysis. The oligomer concentration which results in 10% hemolysis is indicated as HC10 in Table 1. The data were expressed as mean and S.D. of four replicates. % Hemolysis=[OD576 nm (polymer)−OD576 nm (PBS)]/[OD576 nm (Triton-X)−OD576 nm (PBS)]×100%

[9] = Critical micelle concentration; format: physicochemical
[10] = test system: Staphylococcus aureus; assay: Percentage growth after 24 hours with norfloxacin, IDPBX8 and 1:1 mixture (FIG. 2a); format: cell-based; settings: IDPBX8 combined with norfloxacin, 1:1 weight ratio
[11] = test system: C. albicans; assay: Growth of C. albicans with IDPBX8, fluconazole or combination (OD600, colony counting; FIG. 2b, 2c)

OC(Cn1cncn1)(Cn1cncn1)c1ccc(F)cc1F [Fluconazole, fluconazole, reference compound]
MIC ([1]; ATCC10231, Candida albicans ~10^6 CFU/ml, YMB, room temperature, no visible growth): 2 to 4 µg/mL (≈ 6.53 to 13.1 µM) | MIC50 ([2]; triazole alone, read-out: Alone MIC50 component B): 4 µg/mL | Alone MIC50 component B ([2]; triazole alone): 2 µg/mL | Combined MIC50 component B ([2]; triazole in combination with IDPBX8): 0.5 µg/mL | Combined MIC50 component B ([2]; triazole in combination with IDPPX8): 0.25 µg/mL | Combined MIC50 component B ([2]; triazole in combination with IIDPPBX8): 2 µg/mL | Number of surviving C. albicans after 24 h treatment compared with control ([3]; 62 μg/ml, 24 h): significantly less than the untreated control | Fungistatic or fungicidal ([3]; 62 μg/ml, survivors at 24 h compared with 0 h): fungistatic rather than fungicidal | MIC increase by the 31th passage ([4]; grown at 1/4 MIC, 31th passage): 8 times of the original MIC

CCCCCCCC[n+]1ccn(Cc2ccc(C[N+]34CC[N+](C/C=C/C[N+]56CC[N+](Cc7ccc(Cn8cc[n+](CCCCCCCC)c8)cc7)(CC5)CC6)(CC3)CC4)cc2)c1.[Br-].[Br-].[Br-].[Br-].[Br-].[Br-] [IDPBX8]
MIC E.C. [5]: 31 µg/mL | MIC P.A. [6]: 62 µg/mL | MIC S.A. [7]: 16 µg/mL | MIC C.A. ([1]; Candida albicans ~10^6 CFU/ml, YMB, room temperature, no visible growth): 8 to 31 µg/mL | MIC50 C.A. (value in brackets) ([1]; Candida albicans, concentration inhibiting 50% fungal growth): (2-8) μg/ml | Interaction when applied together with voriconazole [2]: Synergy | FIC with Fluconazole ([2]; calculated from lowest concentration inhibiting at least 50% growth): 0.38 | Alone MIC50 component A ([2]; oligomer alone): 8 µg/mL | Combined MIC50 component A ([2]; oligomer in combination with Fluconazole): 1 µg/mL | Combined MIC50 component A ([2]; oligomer in combination with Itraconazole): 1 µg/mL | Combined MIC50 component A ([2]; oligomer in combination with Voriconazole): 2 µg/mL | FIC ([2]; oligomer with Fluconazole (Table 2)): 0.38 | FIC ([2]; oligomer with Itraconazole): 0.62 | FIC ([2]; oligomer with Voriconazole): 0.31 | HC10 [8]: >2000 µg/mL | CMC [9]: 1456 µg/mL | Efficacy of combination versus single agents [10]: did not show improved efficacy | Killing ([3]; 62 μg/ml, after 24 h treatment): 99% | Killing ([3]; 62 μg/ml, after 48 h): 99.99% | Killing kinetics ([3]; IDPBX8 compared with IIDPPBX8): kills faster | Resistance developed by C. albicans ([4]; 36 consecutive days of treatment): no significant resistance was developed | MICs over the entire 36 passages ([4]; grown at 1/4 MIC): relatively stable | Total concentration of the combination at which killing effect was observed [11]: 2 µg/mL | Activity of combination versus single agents ([11]; IDPBX8 combined with fluconazole, 1:1 weight ratio, 24 h): higher activity than each compound/medicine used alone
